# Test results published in patent US20020103377A1, “Piperidinyloxy and pyrrolidinyloxy oxazolidinone antibacterials” (priority 1999, published 2002).
# Experiments:
# [1] = test system: E. faecium OC3312; assay: MIC by microdilution broth method (NCCLS), E. faecium OC3312; format: cell-based; details: cation adjusted Mueller-Hinton broth, 35° C., 16-20 hours; for MIC: Enterococcus faecium, OC3312, microdilution broth, read-out: MIC (μg/mL) E. faecium OC3312
# Method: (§1) Minimal inhibitory concentration (MIC) has been an indicator of in vitro antibacterial activity widely used in the art. The in vitro antimicrobial activity of the compounds was determined by the microdilution broth method following the test method from the National Committee for Laboratory Standards (NCCLS). This method is described in the NCCLS Document M7-A4, Vol. 17, No.2, “Methods for Dilution Antimicrobial Susceptibility Test for Bacteria that Grow Aerobically-Fourth Edition”, which is incorporated herein by reference.
# (§2) In this method two-fold serial dilutions of drug in cation adjusted Mueller-Hinton broth are added to wells in microdilution trays. The test organisms are prepared by adjusting the turbidity of actively growing broth cultures so that the final concentration of test organism after it is added to the wells is approximately 5×10^4 CFU/well.
# (§3) Following inoculation of the microdilution trays, the trays are incubated at 35° C. for 16-20 hours and then read. […] The amount of growth in the wells containing the test compound is compared with the amount of growth in the growth-control wells (no test compound) used in each tray. As set forth in Table 1, compounds of the present invention were tested against a variety of Gram positive and Gram negative pathogenic bacteria resulting in a range of activities, from 1 to ≧128 μg/mL depending on the organism tested.
# [2] = test system: S. aureus; assay: MIC by microdilution broth method (NCCLS), S. aureus Broth; format: cell-based; details: cation adjusted Mueller-Hinton broth, 35° C., 16-20 hours; for MIC: Staphylococcus aureus, read-out: MIC (μg/mL) S. aureus Broth
# Method: as §1, §2, §3
# [3] = test system: MRSA OC 2878; assay: MIC by microdilution broth method (NCCLS), MRSA OC 2878; format: cell-based, Staphylococcus aureus; details: cation adjusted Mueller-Hinton broth, 35° C., 16-20 hours; for MIC: Staphylococcus aureus, MRSA, read-out: MIC (μg/mL) MRSA OC 2878
# Method: as §1, §2, §3
MIC [1] [µg/mL],MIC [2] [µg/mL],MIC [3] [µg/mL],MIC (μg/mL) E. faecium OC3312 ([1]; microdilution broth) [µg/mL],MIC (μg/mL) S. aureus Broth [2] [µg/mL],MIC (μg/mL) MRSA OC 2878 [3] [µg/mL],Structure (SMILES)
16,8,8,–,–,–,"CC(=O)NC[C@H]1CN(c2ccc(OC3CCCN(C(=O)CO)C3)c(F)c2)C(=O)O1 (stereo partly drawn) [Compound 36, (S)-N-[[3-[3-Fluoro-4-{N-(α-hydroxyacetyl)piperidinyl-3-oxy}phenyl]-2-oxo-5-oxazolidinyl]methyl]acetamide]"
4,8,8,–,–,–,"CC(=O)NC[C@H]1CN(c2ccc(OC3CCN(C(=O)c4ccno4)CC3)c(F)c2)C(=O)O1 [Compound 52, (S)-N-[[3-[3-Fluoro-4-{N-(5-isoxazolylcarbonyl)piperdinyl-4-oxy}phenyl]-2-oxo-5-oxazolidinyl]methyl]acetamide]"
16,8,8,–,–,–,"CC(=O)NC[C@H]1CN(c2ccc(OC3CCCN(C(C)=O)C3)c(F)c2)C(=O)O1 (stereo partly drawn) [Compound 37, (S)-N-[[3-[3-Fluoro-4-{N-(acetyl)piperidinyl-3-oxy}phenyl]-2-oxo-5-oxazolidinyl]methyl]acetamide]"
> 128,32,32,–,–,–,"CC(=O)NC[C@H]1CN(c2ccc(OC3CCN(C(=O)COCc4ccccc4)CC3)nc2)C(=O)O1 [Compound 42, (5S)-3-[6-{N-(Benzyloxyacetyl)piperidinyl-4-oxy}-pyridin-3-yl]-5-methylacetamide-oxazolidin-2-one]"
16,16,16,–,–,–,"CC(=O)NC[C@H]1CN(c2ccc(OC3CN(S(C)(=O)=O)C3)c(F)c2)C(=O)O1 [Compound 57, (S)-N-[[3-[3-Fluoro-4-{N-(methanesulfonyl)azetidinyl-3-oxy}phenyl]-2-oxo-5-oxazolidinyl]methyl]acetamide]"
128,64,64,–,–,–,"CC(=O)NC[C@H]1CN(c2ccc(OC3CCN(C(=O)c4ccc(C#N)cc4)CC3)nc2)C(=O)O1 [Compound 45, (5S)-3-[6-{N-(4-Cyanobenzoyl)piperidinyl-4-oxy}-pyridin-3-yl]-5-methylacetamide-oxazolidin-2-one]"
> 128,64,64,–,–,–,"CC(=O)NC[C@H]1CN(c2ccc(OC3CCN(C(=O)c4cccc(F)c4)CC3)nc2)C(=O)O1 [Compound 47, (5S)-3-[6-{N-(3-Fluorobenzoyl)piperidinyl-4-oxy}-pyridin-3-yl]-5-methylacetamide-oxazolidin-2-one]"
16,8,8,–,–,–,"CC(=O)NC[C@H]1CN(c2ccc(OC3CCN(C(C)=O)CC3)c(F)c2)C(=O)O1 [Compound 7, (S)-N-[[3-[3-Fluoro-4-{N-(acetyl)piperidinyl-4-oxy}phenyl]-2-oxo-5-oxazolidinyl]methyl]acetamide]"
32,16,8,–,–,–,"CC(=O)NC[C@H]1CN(c2ccc(OC3CCN(C(C)=O)CC3)cc2)C(=O)O1 [Compound 32, (S)-N-[[3-[4-{N-(Acetyl)piperidinyl-4-oxy}phenyl]-2-oxo-5-oxazolidinyl]methyl]acetamide]"
16,16,8,–,–,–,"CC(=O)NC[C@H]1CN(c2ccc(OC3CCN(C(=O)CCc4ccccc4)CC3)c(F)c2)C(=O)O1 [Compound 28, (S)-N-[[3-[3-Fluoro-4-{N-(3-phenyl-propionyl)piperidinyl-4-oxy}phenyl]-2-oxo-5-oxazolidinyl]methyl]acetamide]"

# Further lines, the molecule ahead of its results:
Structure (SMILES),MIC [1] [µg/mL],MIC [2] [µg/mL],MIC [3] [µg/mL],MIC (μg/mL) E. faecium OC3312 ([1]; microdilution broth) [µg/mL],MIC (μg/mL) S. aureus Broth [2] [µg/mL],MIC (μg/mL) MRSA OC 2878 [3] [µg/mL]
"CC(=O)NC[C@H]1CN(c2ccc(OC3CCN(C(=O)COCc4ccccc4)CC3)c(F)c2)C(=O)O1 [Compound 3, (S)-N-[[3-[3-Fluoro-4-{N-(benzyloxyacetyl)piperidinyl-4-oxy}phenyl]-2-oxo-5-oxazolidinyl]methyl]acetamide]",–,–,–,4,4,2
"CC(=O)NC[C@H]1CN(c2ccc(OC3CCN(C(C)=O)CC3)nc2)C(=O)O1 [Compound 43, (5S)-3-[6-{N-(Acetyl)piperidinyl-4-oxy}-pyridin-3-yl]-5-methylacetamide-oxazolidin-2-one]",> 128,128,128,–,–,–
"COc1cccc(C(=O)N2CCC(Oc3ccc(N4C[C@H](CNC(C)=O)OC4=O)cn3)CC2)c1 [Compound 48, (5S)-3-[6-{N-(3-Methoxybenzoyl)piperidinyl-4-oxy}-pyridin-3-yl]-5-methylacetamide-oxazolidin-2-one]",> 128,64,32,–,–,–
"CC(=O)NC[C@H]1CN(c2ccc(OC3CCN(C(=O)CO)CC3)c(F)c2)C(=O)O1 [Compound 4, (S)-N-[[3-[3-Fluoro-4-{N-(α-hydroxyacetyl)piperidinyl-4-oxy}phenyl]-2-oxo-5-oxazolidinyl]methyl]acetamide]",8,4,4,–,–,–
CC(=O)NC[C@H]1CN(c2ccc(OC3CCN(C(=O)COCc4ccncc4)CC3)c(F)c2)C(=O)O1 [Compound 54],8,8,8,–,–,–
"COc1ccc(C(=O)N2CCC(Oc3ccc(N4C[C@H](CNC(C)=O)OC4=O)cc3F)CC2)cc1 [Compound 13, (S)-N-[[3-[3-Fluoro-4-{N-(4-methoxybenzoyl)piperidinyl-4-oxy}phenyl]-2-oxo-5-oxazolidinyl]methyl]acetamide]",16,8,8,–,–,–
CC(=O)NC[C@H]1CN(c2ccc(OC3CCN(C(=O)CN4CCOCC4)CC3)c(F)c2)C(=O)O1 [Compound 56],32,32,32,–,–,–
"CC(=O)NC[C@H]1CN(c2ccc(OC3CCN(C(=O)N(C)C)CC3)nc2)C(=O)O1 [Compound 49, (5S)-3-[6-{N-(Dimethylcarbamoyl)piperidinyl-4-oxy}-pyridin-3-yl]-5-methylacetamide-oxazolidin-2-one]",> 128,> 64,128,–,–,–
CC(=O)NC[C@H]1CN(c2ccc(OC3CCN(C(=O)CNC(=O)OCc4ccccc4)CC3)c(F)c2)C(=O)O1 [Compound 15],8,8,8,–,–,–
"COC(=O)N1CCC(Oc2ccc(N3C[C@H](CNC(C)=O)OC3=O)cc2F)CC1 [Compound 8, (S)-N-[[3-[3-fluoro-4-{N-(methoxycarbonyl)piperidinyl-4-oxy}phenyl]-2-oxo-5-oxazolidinyl]methyl]acetamide]",8,8,4,–,–,–
CC(=O)NC[C@H]1CN(c2ccc(OC3CCN(C(=O)COCc4cccnc4)CC3)c(F)c2)C(=O)O1 [Compound 55],8,16,16,–,–,–
CC(=O)NC[C@H]1CN(c2ccc(OC3CCN(C(=O)C(NC(=O)OCc4ccccc4)C(C)C)CC3)nc2)C(=O)O1 (stereo partly drawn) [Compound 50],> 64,> 64,64,–,–,–
"COCC(=O)N1CCC(Oc2ccc(N3C[C@H](CNC(C)=O)OC3=O)cc2F)CC1 [Compound 5, (S)-N-[[3-[3-Fluoro-4-{N-(methoxyacetyl)piperidinyl-4-oxy}phenyl]-2-oxo-5-oxazolidinyl]methyl]acetamide]",16,8,8,–,–,–
"CC(=O)NC[C@H]1CN(c2ccc(OC3CCN(S(C)(=O)=O)CC3)cc2)C(=O)O1 [Compound 33, (S)-N-[[3-[4-{N-(Methanesulfonyl)piperidinyl-4-oxy}phenyl]-2-oxo-5-oxazolidinyl]methyl]acetamide]",32,16,16,–,–,–
"CC(=O)NC[C@H]1CN(c2ccc(OC3CCN(C(=O)CO)CC3)cc2)C(=O)O1 [Compound 31, (S)-N-[[3-[4-{N-(α-Hydroxyacetyl)piperidinyl-4-oxy}phenyl]-2-oxo-5-oxazolidinyl]methyl]acetamide]",32,16,16,–,–,–
"CC(=O)OCC(=O)N1CC(Oc2ccc(N3C[C@H](CN(C(C)=O)C(=O)COC(C)=O)OC3=O)cc2F)C1 [Compound 60, (S)-N-[[3-[3-Fluoro-4-{N-(acetoxyacetyl)azetidinyl-3-oxy}phenyl]-2-oxo-5-oxazolidinyl]methyl]-N-[α-acetoxyacetyl]acetamide]",> 128,8,16,–,–,–
"CC(=O)NC[C@H]1CN(c2ccc(OC3CCCN(C(=O)COCc4ccccc4)C3)c(F)c2)C(=O)O1 (stereo partly drawn) [Compound 35, (S)-N-[[3-[3-Fluoro-4-{N-(benzyloxyacetyl)piperidinyl-3-oxy}phenyl]-2-oxo-5-oxazolidinyl]methyl]acetamide]",64,32,32,–,–,–
"CC(=O)NC[C@H]1CN(c2ccc(OC3CCN(C(=O)c4ccncc4)CC3)c(F)c2)C(=O)O1 [Compound 21, (S)-N-[[3-[3-Fluoro-4-{N-(4-pyridoyl)piperidinyl-4-oxy}phenyl]-2-oxo-5-oxazolidinyl]methyl]acetamide]",64,32,32,–,–,–
